# Measured values: patent US11634391B2, “Compounds which are inhibitors of Notum” (UCL BUSINESS LTD, priority 2018, dated 2023)
# Biological target: notum carboxyesterase enzyme (Homo sapiens (Human), UniProt Q6P988)
# Test: Biochemical Notum Enzymatic Activity Assay (OPTS substrate, fluorescence)
# Details: 2 μM OPTS solution, 2.38 nM notum enzyme solution, 1 hour incubation at room temperature, fluorescence ex 485 nm / em 520 nm; n≥2
# Text: Plate layout and measured fluorescence values were input into Dotmatics Studies data management tool.
# Sequence of notum carboxyesterase enzyme (Q6P988 20-496): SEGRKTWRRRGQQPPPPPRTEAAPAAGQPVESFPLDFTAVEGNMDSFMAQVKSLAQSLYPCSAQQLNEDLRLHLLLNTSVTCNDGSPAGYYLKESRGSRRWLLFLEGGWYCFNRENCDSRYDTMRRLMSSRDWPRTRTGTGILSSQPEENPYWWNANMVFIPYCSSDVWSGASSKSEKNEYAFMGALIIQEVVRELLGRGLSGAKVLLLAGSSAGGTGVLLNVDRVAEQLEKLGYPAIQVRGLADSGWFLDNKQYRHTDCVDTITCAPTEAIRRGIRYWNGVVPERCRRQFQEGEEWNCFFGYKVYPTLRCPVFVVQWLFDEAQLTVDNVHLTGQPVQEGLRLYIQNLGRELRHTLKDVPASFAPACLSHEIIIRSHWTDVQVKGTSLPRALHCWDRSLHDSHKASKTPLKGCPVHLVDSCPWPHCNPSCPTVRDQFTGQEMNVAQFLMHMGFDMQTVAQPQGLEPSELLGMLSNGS
row,Structure (SMILES),IC50
1,"CC(O)Cc1cn(-c2ccc(Cl)c(C(F)(F)F)c2Cl)nn1 (centres unmarked) [Compound 305, 1-[1-[2,4-dichloro-3-(trifluoromethyl)phenyl]triazol-4-yl]propan-2-ol]",1320 nM
2,"FC(F)(F)c1c(Cl)ccc(-c2c[nH]nn2)c1Cl [Compound 306, 4-[2,4-dichloro-3-(trifluoromethyl)phenyl]-1H-triazole]",2.9 nM
3,"FC(F)(F)c1c(Cl)cnc(-n2ccnn2)c1Cl [Compound 307, 3,5-dichloro-2-(triazol-1-yl)-4-(trifluoromethyl)pyridine]",8.1 nM
4,"FC(F)(F)c1cc(-n2ccnn2)cc(Cl)c1Cl [Compound 309, 1-[3,4-dichloro-5-(trifluoromethyl)phenyl]triazole]",107 nM
5,"CC(O)c1cn(-c2ccc(Cl)c(C(F)(F)F)c2Cl)nn1 (centres unmarked) [Compound 310, 1-[1-[2,4-dichloro-3-(trifluoromethyl)phenyl]triazol-4-yl]ethanol]",1830 nM
